Reference: ChEMBL document CHEMBL3352151, “In vitro and in vivo antibacterial evaluation and mechanistic study of ornithine based small cationic lipopeptides against antibiotic resistant clinical isolates” (Eur J Med Chem, 2014)
Values after ≈ are worked out from the molar mass of the structure shown. Square brackets hold non-standard residues; d marks the D form. Peptide text beside a SMILES is read from it. * marks the point of attachment. Stearoyl = CCCCCCCCCCCCCCCCCC(=O)*; Palmitoyl = CCCCCCCCCCCCCCCC(=O)*; Myristoyl = CCCCCCCCCCCCCC(=O)*; Orn = NCCC[CH](N)C(=O)O

How the values were obtained:
Staphylococcus aureus [1] = assay: Antibacterial activity against clinical isolates of methicillin-resistant Staphylococcus aureus PGI/DML03149 after overnight incubation by microdilution broth assay; format: functional
Streptococcus pneumoniae [2] = assay: Antibacterial activity against clinical isolates of Streptococcus pneumoniae PGI/DML02468 after overnight incubation by microdilution broth assay; format: functional
Haemophilus influenzae [3] = assay: Antibacterial activity against clinical isolates of ciprofloxacin-resistant Haemophilus influenzae PGI/DML01744 after overnight incubation by microdilution broth assay; format: functional
Acinetobacter baumannii [4] = assay: Antibacterial activity against clinical isolates of imipenem-resistant Acinetobacter baumannii GMCH/R-Imi003 after overnight incubation by microdilution broth assay; format: functional
Acinetobacter baumannii [5] = assay: Antibacterial activity against clinical isolates of Acinetobacter baumannii GMCH/B0083 after overnight incubation by microdilution broth assay; format: functional
[6] = Cytotoxicity against human HaCaT cells assessed as cell viability at 100 ug/ml after 18 hrs by MTT assay; format: cell-based; conditions: read-out: Activity
[7] = test system: Staphylococcus epidermidis; assay: Antibacterial activity against clinical isolates of Staphylococcus epidermidis GMCH/B0057 after overnight incubation by microdilution broth assay; format: functional
Enterococcus faecalis [8] = assay: Antibacterial activity against clinical isolates of gentamicin-resistant Enterococcus faecalis GMCH/R-Gen011 after overnight incubation by microdilution broth assay; format: functional
Enterococcus faecalis [9] = assay: Antibacterial activity against clinical isolates of Enterococcus faecalis GMCH/B0091 after overnight incubation by microdilution broth assay; format: functional
Enterococcus faecium [10] = assay: Antibacterial activity against clinical isolates of penicillin-resistant Enterococcus faecium GMCH/R-Pen003 after overnight incubation by microdilution broth assay; format: functional
Escherichia coli [11] = assay: Antibacterial activity against clinical isolates of imipenem-resistant Escherichia coli PGI/DML02292 after overnight incubation by microdilution broth assay; format: functional
Klebsiella pneumoniae [12] = assay: Antibacterial activity against clinical isolates of kanamycin-resistant Klebsiella pneumoniae GMCH/R-Kan006 after overnight incubation by microdilution broth assay; format: functional
[13] = test system: Staphylococcus epidermidis; assay: Antibacterial activity against clinical isolates of ampicillin-resistant Staphylococcus epidermidis GMCH/R-Amp008 after overnight incubation by microdilution broth assay; format: functional
Streptococcus pneumoniae [14] = assay: Antibacterial activity against clinical isolates of erythromycin-resistant Streptococcus pneumoniae PGI/DML02213 after overnight incubation by microdilution broth assay; format: functional
Escherichia coli [15] = assay: Antibacterial activity against clinical isolates of Escherichia coli PGI/DML02250 after overnight incubation by microdilution broth assay; format: functional
[16] = Cytotoxicity against human HaCaT cells assessed as cell viability at 500 ug/ml after 18 hrs by MTT assay; format: cell-based; conditions: read-out: Activity
Haemophilus influenzae [17] = assay: Antibacterial activity against clinical isolates of Haemophilus influenzae PGI/DML01751 after overnight incubation by microdilution broth assay; format: functional
Pseudomonas aeruginosa [18] = assay: Antibacterial activity against clinical isolates of Pseudomonas aeruginosa PGI/DML02084 after overnight incubation by microdilution broth assay; format: functional
Pseudomonas aeruginosa [19] = assay: Antibacterial activity against clinical isolates of streptomycin-resistant Pseudomonas aeruginosa PGI/DML01991 after overnight incubation by microdilution broth assay; format: functional
Enterococcus faecium [20] = assay: Antibacterial activity against clinical isolates of Enterococcus faecium GMCH/B0102 after overnight incubation by microdilution broth assay; format: functional
Staphylococcus aureus [21] = assay: Antibacterial activity against clinical isolates of Staphylococcus aureus PGI/DML03054 after overnight incubation by microdilution broth assay; format: functional
Klebsiella pneumoniae [22] = assay: Antibacterial activity against clinical isolates of Klebsiella pneumoniae GMCH/B0127 after overnight incubation by microdilution broth assay; format: functional

| SMILES | MIC (Staphylococcus aureus [1]) [µg/mL] | MIC (Streptococcus pneumoniae [2]) [µg/mL] | MIC (Haemophilus influenzae [3]) [µg/mL] | MIC (Acinetobacter baumannii [4]) [µg/mL] | MIC (Acinetobacter baumannii [5]) [µg/mL] | viability at 18 h, 100 ug/ml [6] [%] | MIC [7] [µg/mL] | MIC (Enterococcus faecalis [8]) [µg/mL] | MIC (Enterococcus faecalis [9]) [µg/mL] | MIC (Enterococcus faecium [10]) [µg/mL] | MIC (Escherichia coli [11]) [µg/mL] | MIC (Klebsiella pneumoniae [12]) [µg/mL] | MIC [13] [µg/mL] | MIC (Streptococcus pneumoniae [14]) [µg/mL] | MIC (Escherichia coli [15]) [µg/mL] | viability at 18 h, 500 ug/ml [16] [%] | MIC (Haemophilus influenzae [17]) [µg/mL] | MIC (Pseudomonas aeruginosa [18]) [µg/mL] | MIC (Enterococcus faecium [20]) [µg/mL] | MIC (Staphylococcus aureus [21]) [µg/mL] | further results |
| --- | --- | --- | --- | --- | --- | --- | --- | --- | --- | --- | --- | --- | --- | --- | --- | --- | --- | --- | --- | --- | --- |
| CCCCCCCCCCCCCCCC(=O)NC(CCCN)C(=O)NC(CCCN)C(=O)NC(CCCN)C(N)=O (centres undefined) | 4.5 (≈ 7.53 µM) | 3.1 (≈ 5.18 µM) | 5.5 (≈ 9.2 µM) | 5.5 (≈ 9.2 µM) | 4 (≈ 6.69 µM) | > 80 | 4 (≈ 6.69 µM) | 5 (≈ 8.36 µM) | 3.1 (≈ 5.18 µM) | 5 (≈ 8.36 µM) | 6.25 (≈ 10.5 µM) | 3.1 (≈ 5.18 µM) | 5.5 (≈ 9.2 µM) | 3.5 (≈ 5.85 µM) | 5.5 (≈ 9.2 µM) | > 80 | 5 (≈ 8.36 µM) | 2.5 (≈ 4.18 µM) | 3 (≈ 5.02 µM) | 5 (≈ 8.36 µM) | MIC (Pseudomonas aeruginosa [19]): 3.1 µg/mL (≈ 5.18 µM); MIC (Klebsiella pneumoniae [22]): 3.5 µg/mL (≈ 5.85 µM) |
| CCCCCCCCCCCCCCCCCC(=O)NC(CCCN)C(=O)NC(CCCN)C(=O)NC(CCCN)C(N)=O (centres undefined) | 5.5 (≈ 8.79 µM) | 2.5 (≈ 3.99 µM) | 7.5 (≈ 12 µM) | 4.5 (≈ 7.19 µM) | 6.5 (≈ 10.4 µM) | > 80 | 7.5 (≈ 12 µM) | 6.25 (≈ 9.98 µM) | 2.5 (≈ 3.99 µM) | 7.5 (≈ 12 µM) | 7.5 (≈ 12 µM) | 7.5 (≈ 12 µM) | 5 (≈ 7.99 µM) | 5 (≈ 7.99 µM) | 10 (≈ 16 µM) | > 80 | 10 (≈ 16 µM) | 1.5 (≈ 2.4 µM) | 4.5 (≈ 7.19 µM) | 6.2 (≈ 9.91 µM) | MIC (Pseudomonas aeruginosa [19]): 4.5 µg/mL (≈ 7.19 µM); MIC (Klebsiella pneumoniae [22]): 3.5 µg/mL (≈ 5.59 µM) |
| CCCCCCCCCC(=O)N[C@@H](Cc1c[nH]c2ccccc12)C(=O)N[C@H](CC(N)=O)C(=O)N[C@@H](CC(=O)O)C(=O)N[C@@H]1C(=O)NCC(=O)N[C@@H](CCCN)C(=O)N[C@@H](CC(=O)O)C(=O)N[C@H](C)C(=O)N[C@@H](CC(=O)O)C(=O)NCC(=O)N[C@H](CO)C(=O)N[C@@H]([C@H](C)CC(=O)O)C(=O)N[C@@H](CC(=O)c2ccccc2N)C(=O)O[C@@H]1C | 1.25 (≈ 0.771 µM) | 1.25 (≈ 0.771 µM) |  |  |  |  | 0.5 (≈ 0.309 µM) | 1.5 (≈ 0.926 µM) | 1.75 (≈ 1.08 µM) | 2.5 (≈ 1.54 µM) |  |  | 1.5 (≈ 0.926 µM) | 1.5 (≈ 0.926 µM) |  |  |  |  | 2 (≈ 1.23 µM) | 0.7 (≈ 0.432 µM) |  |
| CCCCCCCCCCCCCC(=O)NC(CCCN)C(=O)NC(CCCN)C(=O)NC(CCCN)C(=O)NC(CCCN)C(N)=O (centres undefined) (Myristoyl-[Orn][Orn][Orn][Orn]-NH2; configuration not given here) | 5 (≈ 7.31 µM) | 5.5 (≈ 8.04 µM) | 10 (≈ 14.6 µM) | 5.5 (≈ 8.04 µM) | 5 (≈ 7.31 µM) | > 80 | 3.5 (≈ 5.12 µM) | 3.5 (≈ 5.12 µM) | 2 (≈ 2.92 µM) | 5.5 (≈ 8.04 µM) | 10 (≈ 14.6 µM) | 6.25 (≈ 9.14 µM) | 4.25 (≈ 6.21 µM) | 7.5 (≈ 11 µM) | 2.5 (≈ 3.66 µM) | > 80 | 12.5 (≈ 18.3 µM) | 3.1 (≈ 4.53 µM) | 4 (≈ 5.85 µM) | 4.5 (≈ 6.58 µM) | MIC (Pseudomonas aeruginosa [19]): 3 µg/mL (≈ 4.39 µM); MIC (Klebsiella pneumoniae [22]): 4.5 µg/mL (≈ 6.58 µM) |
| CCCCCCCCCCCCCC(=O)NC(CCCN)C(=O)NC(CCCN)C(=O)NC(CCCN)C(=O)NC(CCCN)C(=O)NC(CCCN)C(N)=O (centres undefined) (Myristoyl-[Orn][Orn][Orn][Orn][Orn]-NH2; configuration not given here) | 12.5 (≈ 15.7 µM) | 3.5 (≈ 4.39 µM) | 15.5 (≈ 19.4 µM) | 6.5 (≈ 8.14 µM) | 8.25 (≈ 10.3 µM) | > 80 | 7.5 (≈ 9.4 µM) | 10.5 (≈ 13.2 µM) | 1.5 (≈ 1.88 µM) | 6.21 (≈ 7.78 µM) | 6.25 (≈ 7.83 µM) | 7.5 (≈ 9.4 µM) | 12.5 (≈ 15.7 µM) | 12.5 (≈ 15.7 µM) | 2.5 (≈ 3.13 µM) | > 80 | 12.5 (≈ 15.7 µM) | 1.5 (≈ 1.88 µM) | 3.1 (≈ 3.88 µM) | 10 (≈ 12.5 µM) | MIC (Pseudomonas aeruginosa [19]): 4.25 µg/mL (≈ 5.32 µM); MIC (Klebsiella pneumoniae [22]): 6.2 µg/mL (≈ 7.77 µM) |
| CCCCCCCCCCCCCCCC(=O)NC(CCCN)C(=O)NC(CCCN)C(=O)NC(CCCN)C(=O)NC(CCCN)C(N)=O (centres undefined) (Palmitoyl-[Orn][Orn][Orn][Orn]-NH2; configuration not given here) | 4.5 (≈ 6.32 µM) | 2.5 (≈ 3.51 µM) | 12.5 (≈ 17.6 µM) | 10 (≈ 14 µM) | 6.5 (≈ 9.13 µM) | > 80 | 2.5 (≈ 3.51 µM) | 7.5 (≈ 10.5 µM) | 3.5 (≈ 4.92 µM) | 3.5 (≈ 4.92 µM) | 12.5 (≈ 17.6 µM) | 5.5 (≈ 7.72 µM) | 2 (≈ 2.81 µM) | 10.5 (≈ 14.7 µM) | 2 (≈ 2.81 µM) | > 80 | 7.5 (≈ 10.5 µM) | 3 (≈ 4.21 µM) | 3.5 (≈ 4.92 µM) | 3.1 (≈ 4.35 µM) | MIC (Pseudomonas aeruginosa [19]): 6.25 µg/mL (≈ 8.78 µM); MIC (Klebsiella pneumoniae [22]): 2 µg/mL (≈ 2.81 µM) |
| CCCCCCCCCCCCCCCC(=O)NC(CCCN)C(=O)NC(CCCN)C(=O)NC(CCCN)C(=O)NC(CCCN)C(=O)NC(CCCN)C(N)=O (centres undefined) (Palmitoyl-[Orn][Orn][Orn][Orn][Orn]-NH2; configuration not given here) | 10 (≈ 12.1 µM) | 3.1 (≈ 3.75 µM) | 12.5 (≈ 15.1 µM) | 9.5 (≈ 11.5 µM) | 12.5 (≈ 15.1 µM) | > 80 | 3.1 (≈ 3.75 µM) | 12.5 (≈ 15.1 µM) | 2 (≈ 2.42 µM) | 7.5 (≈ 9.08 µM) | 5 (≈ 6.05 µM) | 10 (≈ 12.1 µM) | 7.5 (≈ 9.08 µM) | 7.5 (≈ 9.08 µM) | 1.5 (≈ 1.82 µM) | > 80 | 10 (≈ 12.1 µM) | 2 (≈ 2.42 µM) | 3 (≈ 3.63 µM) | 7.5 (≈ 9.08 µM) | MIC (Pseudomonas aeruginosa [19]): 6.5 µg/mL (≈ 7.87 µM); MIC (Klebsiella pneumoniae [22]): 2.5 µg/mL (≈ 3.03 µM) |
| CCCCCCCCCCCCCCCCCC(=O)NC(CCCN)C(=O)NC(CCCN)C(=O)NC(CCCN)C(=O)NC(CCCN)C(=O)NC(CCCN)C(N)=O (centres undefined) (Stearoyl-[Orn][Orn][Orn][Orn][Orn]-NH2; configuration not given here) | 10.5 (≈ 12.3 µM) | 2.5 (≈ 2.93 µM) | 15 (≈ 17.6 µM) | 7.5 (≈ 8.78 µM) | 10 (≈ 11.7 µM) | > 80 | 4.5 (≈ 5.27 µM) | 15 (≈ 17.6 µM) | 4.5 (≈ 5.27 µM) | 12.5 (≈ 14.6 µM) | 7.5 (≈ 8.78 µM) | 12.5 (≈ 14.6 µM) | 10.5 (≈ 12.3 µM) | 10 (≈ 11.7 µM) | 5 (≈ 5.85 µM) | > 80 | 10 (≈ 11.7 µM) | 2.5 (≈ 2.93 µM) | 6.2 (≈ 7.26 µM) | 6.2 (≈ 7.26 µM) | MIC (Pseudomonas aeruginosa [19]): 5 µg/mL (≈ 5.85 µM); MIC (Klebsiella pneumoniae [22]): 4 µg/mL (≈ 4.68 µM) |
